From patent US20090197859A1 (Pfizer Inc., priority 2008, published 2009)

Tests used:
[1] = biological target: T1, cloned human 5-HT6 receptor (Homo sapiens, UniProt P50406); assay: 5-HT6 Receptor Binding Assay ([3H]-LSD radioligand, SPA); conditions: read-out: 5HT6 % inh @ 1 uM
T1 construct: host or cells: HeLa cells, G-418 selection, membrane preparation
How it was run: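 Membranes from HeLa cells expressing cloned human 5-HT6 receptor, mixed with WGA-coated SPA beads in 20 mM HEPES, 10 mM MgCl2, 150 mM NaCl, 1 mM EDTA pH 7.4 with [3H]-LSD; 1 h at room temperature. Eleven concentrations in duplicate; one-site fit IC50 converted to Ki by Cheng-Prusoff.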

T1 sequence (P50406 whole entry): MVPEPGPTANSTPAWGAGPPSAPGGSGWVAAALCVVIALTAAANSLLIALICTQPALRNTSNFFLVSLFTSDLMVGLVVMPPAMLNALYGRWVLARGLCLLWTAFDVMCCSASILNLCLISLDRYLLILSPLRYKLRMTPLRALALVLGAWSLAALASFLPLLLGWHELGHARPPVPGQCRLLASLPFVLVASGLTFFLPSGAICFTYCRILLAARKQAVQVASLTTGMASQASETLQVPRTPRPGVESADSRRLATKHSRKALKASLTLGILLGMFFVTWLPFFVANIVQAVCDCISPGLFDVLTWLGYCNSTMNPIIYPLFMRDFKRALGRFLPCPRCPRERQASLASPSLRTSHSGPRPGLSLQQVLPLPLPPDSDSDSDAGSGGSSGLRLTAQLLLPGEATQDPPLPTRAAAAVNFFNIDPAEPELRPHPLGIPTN

| SMILES | inhibition at 1 µM [1] [%] | melting point [°C] |
| --- | --- | --- |
| CN1CCN(c2cccc(C(=O)N3CCC[C@H](Oc4cccc(Cl)c4)C3)n2)CC1 [Example 77, [(S)-3-(3-Chloro-phenoxy)-piperidin-1-yl]-[6-(4-methyl-piperazin-1-yl)-pyridin-2-yl]-methanone] | 99.5 | 78 to 80 |
| CN1CCN(c2cccc(S(=O)(=O)N3CCCCC3c3ccccc3F)n2)CC1 (centres unmarked) [Example 79, 1-{6-[2-(2-Fluoro-phenyl)-piperidine-1-sulfonyl]-pyridin-2-yl}-4-methyl-piperazine] | 90.2 | 195.3 to 196.4 |
| CN1CCCN(c2cccc(C(=O)N3CCCC[C@@H]3c3cccc(F)c3)n2)CC1 [Example 80, [(R)-2-(3-Fluoro-phenyl)-piperidin-1-yl]-[6-(4-methyl-[1,4]diazepan-1-yl)-pyridin-2-yl]-methanone] | 91.7 | 155 to 156.2 |
| CN1CCCN(c2cccc(C(=O)N3CCC[C@H](Oc4cccc(F)c4)C3)n2)CC1 [Example 85, [(S)-3-(3-Fluoro-phenoxy)-piperidin-1-yl]-[6-(4-methyl-[1,4]diazepan-1-yl)-pyridin-2-yl]-methanone] | 99.1 | 113 to 115 |
| Cc1cccc(O[C@H]2CCCN(C(=O)c3cccc(N4CCCN(C)CC4)n3)C2)c1 [Example 86, [6-(4-Methyl-[1,4]diazepan-1-yl)-pyridin-2-yl]-((S)-3-m-tolyloxy-piperidin-1-yl)-methanone] | 99.5 | 118 to 120 |
| CN1CCCN(c2cccc(C(=O)N3CCC[C@H](Oc4cccc(Cl)c4)C3)n2)CC1 [Example 87, [(S)-3-(3-Chloro-phenoxy)-piperidin-1-yl]-[6-(4-methyl-[1,4]diazepan-1-yl)-pyridin-2-yl]-methanone] | 98.9 | 110 to 112 |
| CN1CCN(c2cccc(S(=O)(=O)N3CCC(c4ccccc4F)CC3)n2)CC1 [Example 88, 1-{6-[4-(2-Fluoro-phenyl)-piperidine-1-sulfonyl]-pyridin-2-yl}-4-methyl-piperazine] | 102 | 240.5 to 242 |
| Cc1ccc(CN(C)C(=O)c2cccc(N3CCN(C)CC3)n2)cc1 [Example 90, 6-(4-Methyl-piperazin-1-yl)-pyridine-2-carboxylic acid methyl-(4-methyl-benzyl)-amide] | 89.4 | 98 to 99 |
| CN1CCN(c2cccc(C(=O)N(C)Cc3ccccc3C(F)(F)F)n2)CC1 [Example 92, 6-(4-Methyl-piperazin-1-yl)-pyridine-2-carboxylic acid methyl-(2-trifluoromethyl-benzyl)-amide] | 83 | 199.5 to 200.6 |
| Cc1cccc([C@@H](C)N(C)C(=O)c2cccc(N3CCN(C)CC3)n2)c1 [Example 93, 6-(4-Methyl-piperazin-1-yl)-pyridine-2-carboxylic acid methyl-((R)-1-m-tolyl-ethyl)-amide] | 99.4 | 126 to 128 |
| CN1CCC(c2cccc(C(=O)N3CCC(Oc4ccccc4Cl)CC3)n2)CC1 [Example 96, [4-(2-Chloro-phenoxy)-piperidin-1-yl]-(1′-methyl-1′,2′,3′,4′,5′,6′-hexahydro-[2,4′]bipyridinyl-6-yl)-methanone] | 85.8 | 119 to 121 |
| CN1CC(c2cccc(C(=O)N3CCC(Oc4ccc(F)cc4)CC3)n2)C1 [Example 97, [4-(4-Fluoro-phenoxy)-piperidin-1-yl]-[6-(1-methyl-azetidin-3-yl)-pyridin-2-yl]-methanone] | 79.6 | 141.6 to 142.9 |
| CN1CCN(c2cccc(C(=O)N3CCC(c4ccc(F)cc4F)CC3)n2)CC1 [Example 102, [4-(2,4-Difluoro-phenyl)-piperidin-1-yl]-[6-(4-methyl-piperazin-1-yl)-pyridin-2-yl]-methanone] | 98.7 | 148.6 to 149.5 |
| Cc1ccc(F)cc1C1CCN(C(=O)c2cccc(N3CCN(C)CC3)n2)CC1 [Example 103, [4-(5-Fluoro-2-methyl-phenyl)-piperidin-1-yl]-[6-(4-methyl-piperazin-1-yl)-pyridin-2-yl]-methanone] | 101 | 85.1 to 86.2 |
| Cc1c(F)cccc1C1CCN(C(=O)c2cccc(N3CCN(C)CC3)n2)CC1 [Example 104, [4-(3-Fluoro-2-methyl-phenyl)-piperidin-1-yl]-[6-(4-methyl-piperazin-1-yl)-pyridin-2-yl]-methanone] | 101 | 128.6 to 129.2 |
| Cc1cc(F)ccc1C1CCN(C(=O)c2cccc(N3CCN(C)CC3)n2)CC1 [Example 105, [4-(4-Fluoro-2-methyl-phenyl)-piperidin-1-yl]-[6-(4-methyl-piperazin-1-yl)-pyridin-2-yl]-methanone] | 97.6 | 156.4 to 157.7 |
| Cc1cc(F)ccc1C1CCN(C(=O)c2cccc(C3CCN(C)C3)n2)CC1 (centres unmarked) [Example 106, [4-(4-Fluoro-2-methyl-phenyl)-piperidin-1-yl]-[6-(1-methyl-pyrrolidin-3-yl)-pyridin-2-yl]-methanone] | 93.6 | 116.2 to 117.4 |
| Cc1cccc(F)c1C1CCN(C(=O)c2cccc(C3CCN(C)C3)n2)CC1 (centres unmarked) [Example 111, [4-(2-Fluoro-6-methyl-phenyl)-piperidin-1-yl]-[6-(1-methyl-pyrrolidin-3-yl)-pyridin-2-yl]-methanone] | 104 | 122.6 to 123.2 |
| Cc1ccc(F)cc1C1CCN(C(=O)c2cccc(C3CCN(C)C3)n2)CC1 (centres unmarked) [Example 112, [4-(5-Fluoro-2-methyl-phenyl)-piperidin-1-yl]-[6-(1-methyl-pyrrolidin-3-yl)-pyridin-2-yl]-methanone] | 97.7 | 139.6 to 141.41 |
